“And” between values parts separate entries of the source, which are not always exact repeats. Identical values can stand only once.
Assays:
[1] = system: lung (A-549) cancer cell line; assay: Antiproliferative assay, A-549; format: cell-based; conditions: Homo sapiens, A549; read-out: Antiproliferative activity IC50 ± SEM, A-549
Source text: (§1) The MTT assay ([Al-Wahaibi et al., 2022]; [Mahmoud et al., 2023]) was employed to assess the antiproliferative effects of compounds 3a-h and 5a-g on four human cancer cell lines: colon (HT-29) cancer, pancreatic (Panc-1) cancer, lung (A-549) cancer, and breast (MCF-7) cancer cell lines. Erlotinib was applied as a reference. Table 1 presents the median inhibitory concentration (IC50) and average IC50 (GI50) values for each compound evaluated on the four cancer cell lines.
(§2) Compounds 3a-h and 5a-g were tested for their antiproliferative activities on four human cancer cell lines: colon (HT-29), pancreatic (Panc-1), lung (A-549), and breast (MCF-7) using the MTT assay ([Al-Wahaibi et al., 2022]; [Mahmoud et al., 2023]). Erlotinib was applied as a reference.
(§3) To explore the antiproliferative potential of compounds propidium iodide fluorescence assay was performed using different cell lines such as Panc-1 (pancreas cancer cell line), MCF-7 (breast cancer cell line), HT-29 (colon cancer cell line) and A-549 (epithelial cancer cell line), respectively. To calculate the total nuclear DNA, a fluorescent dye (propidium iodide, PI) is used which can attach to the DNA, thus offering a quick and precise technique. PI cannot pass through the cell membrane and its signal intensity can be considered as directly proportional to quantity of cellular DNA. Cells whose cell membranes are damaged or have changed permeability are counted as dead ones. The assay was performed by seeding the cells of different cell lines at a density of 3000-7500 cells/well (in 200μl medium) in culture plates followed by incubation for 24h at 37 °C in humidified 5%CO2/95% air atmospheric conditions. The medium was removed; the compounds were added to the plates at 10 μM concentrations (in 0.1% DMSO) in triplicates, followed by incubation for 48h. DMSO (0.1%) was used as control. After incubation, medium was removed followed by the addition of PI (25 μl, 50μg/mL in water/medium) to each well of the plates. At -80 °C, the plates were allowed to freeze for 24 h, followed by thawing at 25 °C. A fluorometer (Polar-Star BMG Tech) was used to record the readings at excitation and emission wavelengths of 530 and 620 nm for each well. The percentage cytotoxicity of compounds was calculated using the following formula: […]

[2] = system: colon (HT-29) cancer cell line; assay: Antiproliferative assay, HT-29; format: cell-based; conditions: Homo sapiens, read-out: Antiproliferative activity IC50 ± SEM, HT-29
[3] = system: four human cancer cell lines (A-549, MCF-7, Panc-1, HT-29); assay: Antiproliferative assay, average over four cancer cell lines; format: cell-based; conditions: for GI50: Homo sapiens, average IC50 over the four cancer cell lines; for Potency reduction (fold) compared to 3d (GI50): ratio to 3d GI50 = 41 nM
[4] = system: breast (MCF-7) cancer cell line; assay: Antiproliferative assay, MCF-7; format: cell-based; conditions: Homo sapiens, MCF7; read-out: Antiproliferative activity IC50 ± SEM, MCF-7
Source text: as §1, §2, §3

[5] = system: pancreatic (Panc-1) cancer cell line; assay: Antiproliferative assay, Panc-1; format: cell-based; conditions: Homo sapiens, read-out: Antiproliferative activity IC50 ± SEM, Panc-1
Source text: as §1, §2, §3

[6] = Cell viability assay (MTT), normal mammary cells; conditions: human, MCF-10A normal mammary epithelial cells
Protocol: (§4) MTT assay was performed to investigate the effect of the synthesized compounds on mammary epithelial cells (MCF-10A). The cells were propagated in medium consisting of Ham's F-12 medium/ Dulbecco's modified Eagle's medium (DMEM) (1:1) supplemented with 10% foetal calf serum, 2 mM glutamine, insulin (10 μg/mL), hydrocortisone (500 ng/mL) and epidermal growth factor (20 ng/mL). Trypsin ethylenediamine tetra acetic acid (EDTA) was used to passage the cells after every 2-3 days. 96-well flat-bottomed cell culture plates were used to seed the cells at a density of 10^4 cells mL^-1. The medium was aspirated from all the wells of culture plates after 24 h followed by the addition of synthesized compounds (in 200 μL medium to yield a final concentration of 0.1% (v/v) dimethyl sulfoxide) into individual wells of the plates. Four wells were designated to a single compound. The plates were allowed to incubate at 37°C for 96 h. Afterwards, the medium was aspirated and 3-[4,5-dimethylthiazol-2-yl]-2,5-diphenyltetrazolium bromide (MTT) (0.4 mg/mL) in medium was added to each well and subsequently incubated for 3 h. The medium was aspirated and 150 μL dimethyl sulfoxide (DMSO) was added to each well. The plates were vortexed followed by the measurement of absorbance at 540 nm on a microplate reader.

EGFR = EGFR (Homo sapiens, UniProt P00533); assay: EGFR inhibitory assay (EGFR-TK test); conditions: for IC50: EGFR inhibition IC50 ± SEM; for Fold less effective than erlotinib, EGFR inhibition: ratio to erlotinib IC50
Sequence of EGFR (P00533 669-1210): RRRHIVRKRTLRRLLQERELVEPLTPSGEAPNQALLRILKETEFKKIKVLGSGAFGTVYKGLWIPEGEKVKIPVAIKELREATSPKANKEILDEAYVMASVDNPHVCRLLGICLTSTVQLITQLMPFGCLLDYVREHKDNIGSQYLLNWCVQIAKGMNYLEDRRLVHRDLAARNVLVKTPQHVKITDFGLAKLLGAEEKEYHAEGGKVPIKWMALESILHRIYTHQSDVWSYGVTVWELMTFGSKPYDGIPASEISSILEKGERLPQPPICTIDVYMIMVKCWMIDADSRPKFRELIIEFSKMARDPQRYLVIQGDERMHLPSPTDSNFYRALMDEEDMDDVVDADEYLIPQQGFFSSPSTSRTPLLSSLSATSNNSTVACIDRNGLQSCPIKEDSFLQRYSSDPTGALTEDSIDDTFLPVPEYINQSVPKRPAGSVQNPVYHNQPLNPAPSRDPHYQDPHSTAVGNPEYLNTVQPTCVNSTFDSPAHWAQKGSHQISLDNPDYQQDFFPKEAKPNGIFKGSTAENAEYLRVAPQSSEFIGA
Protocol: 5ʹ upstream to the EGFR sequence comprised a sequence that encoded (His)6. Sf-9 cells were infected for 72h for protein expression. The pellets of Sf-9 cells were solubilized in a buffer containing sodium vanadate (100 μM), aprotinin (10 μg/mL), triton (1%), HEPES buffer(50mM), ammonium molybdate (10 μM), benzamidine HCl (16 μg/mL), NaCl (10 mM),leupeptin (10 μg/mL) and pepstatin (10 μg/mL) at 0°C for 20 min at pH 7.4, followed by centrifugation for 20 min. To eliminate the nonspecifically bound material, a Ni-NTA super flow packed column was used to pass through and wash the crude extract supernatant first with 10mM and then with 100 mM imidazole. Histidine-linked proteins were first eluted with 250 and then with 500 mM imidazole subsequent to dialysis against NaCl (50 mM), HEPES (20 mM), glycerol (10%) and 1 μg/mL each of aprotinin, leupeptin and pepstatin for 120 min. The purification was performed either at 4 °C or on ice. To record autophosphorylation level, EGFR kinase assay was carried out on the basis of DELFIA/Time-Resolved Fluorometry. […] Each compound (10 μL) was incubated with recombinant enzyme (10 μL, 5 ng for EGFR, 1:80 dilution in 100 mM HEPES) for 10 min at 25 °C, subsequent to the addition of 5X buffer (10 μL, containing 2 mM MnCl2, 100 μM Na3VO4, 20 mM HEPES and 1 mM DTT) and ATP-MgCl2 (20 μL, containing 0.1 mM ATP and 50 mM MgCl2) and incubation for 1h. The negative and positive controls were included in each plate by the incubation of enzyme either with or without ATP-MgCl2. The liquid was removed after incubation and the plates were washed thrice using a wash buffer. The Europium-tagged antiphosphotyrosine antibody (75 μL, 400 ng) was added to each well followed by incubation of 1h and then washing of the plates using buffer. […] The autophosphorylation percentage inhibition by compounds was calculated using the following equation:
The majority of signals detected by antiphosphotyrosine antibody were from EGFR because the enzyme preparation contained low impurities.

HER-2 = HER-2 (Homo sapiens, UniProt P04626); assay: HER-2 inhibitory assay (ADP-Glo kinase assay)
Sequence of HER-2 (P04626 676-1255 limits assumed): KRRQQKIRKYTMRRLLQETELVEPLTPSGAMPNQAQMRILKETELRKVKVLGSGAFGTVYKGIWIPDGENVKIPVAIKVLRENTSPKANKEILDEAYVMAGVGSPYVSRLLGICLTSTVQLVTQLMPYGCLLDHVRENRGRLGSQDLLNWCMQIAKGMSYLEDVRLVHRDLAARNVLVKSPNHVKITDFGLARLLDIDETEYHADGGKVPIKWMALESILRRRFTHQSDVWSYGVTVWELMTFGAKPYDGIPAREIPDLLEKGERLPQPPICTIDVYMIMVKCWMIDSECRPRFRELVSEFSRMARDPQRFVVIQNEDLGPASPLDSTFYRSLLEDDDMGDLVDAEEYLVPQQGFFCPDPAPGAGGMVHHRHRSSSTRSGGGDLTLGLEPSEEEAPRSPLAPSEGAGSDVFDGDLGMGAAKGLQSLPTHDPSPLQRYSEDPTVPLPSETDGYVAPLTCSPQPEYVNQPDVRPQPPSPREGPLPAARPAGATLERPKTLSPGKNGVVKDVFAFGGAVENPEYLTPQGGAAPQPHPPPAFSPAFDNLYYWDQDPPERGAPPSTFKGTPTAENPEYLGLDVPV
Protocol: The ADP-Glo™ Kinase Assay was used for kinase activity detection, related kinases information: HER-2 (ab60866, Abcam), with a concentration of 100 ng/mL. Target compounds were dissolved in DMSO to obtain drug solutions with different concentrations, and the compound concentrations in the final reaction system (100 μL) were 1 nM, 20 nM, 40 nM, 80 nM, and 100 nM, respectively. 10μL of the solution containing compounds was transferred to a 96-well plate, then added 40 μL of 1 × kinase buffer (50 mM HEPES, pH 7.5) to each well, and mixed the mixture in the 96-well plate on a shaker for 10 min. Next, added 25 μL of ADP-Glo™ reagent to the above wells, mixed and incubated for another 40 min. Distributed 10 μL kinase detection reagent to the reaction and incubated for 30 min. Finally, the full-wavelength microplate reader was used to record the OD value.

in vitro = conditions: human
Protocol: as §4

Caspase-9 = Caspase-9 activation assay; format: cell-based, human; conditions: MCF-7 cells
Protocol: To elucidate the apoptotic mechanism of compounds 3d and 5a, whether via the intrinsic or extrinsic pathway, their impact on caspase-8 and caspase-9 was evaluated.
RPMI 1640 with 10% FBS was used to assist the cells grow at 37 °C, and then the cells were treated with the compounds being studied to check the activity of caspase-3, -8, and -9 ([Hisham et al., 2019]). Refer to Supplementary Appendix A.
Cells were obtained from American Type Culture Collection, cells were grown in RPMI 1640 containing 10% fetal bovine serum at 37°C, stimulated with the compounds to be tested for caspase8, and lysed with Cell Extraction Buffer. This lysate was diluted in Standard Diluent Buffer over the range of the assay and measured for human active caspase-8 content. (Cells are Plated in a density of 1.2 – 1.8 × 10,000 cells/well in a volume of 100µl complete growth medium + 100 ul of the tested compound per well in a 96-well plate for 24 hours before the enzyme assay for Tubulin.). The absorbance of each microwell was read on a spectro-photometer at 450 nm. A standard curve is prepared from 7human Caspase-8 standard dilutions and human Caspase-8 concentration determined.

Cytochrome C = Cytochrome C assay; conditions: MCF-7 cells
Protocol: This lysate was diluted in Standard Diluent Buffer over the range of the assay and measured for cytochrome C content. (Cells are Plated in cells/well in a volume of 100µl complete growth medium + 100 µl of the tested compound + 50 µl of 1X biotin conjugated antibody+ 100 µl of 1X streptavidin-HRP+ 100 µL TMB substrate solution of per well in a 96-well plate for 24 hours before assay).

Bax = Bax level assay; conditions: MCF-7 cells
Protocol: Bring all reagents, except the human Bax-α Standard, to room temperature for at least 30 minutes prior to opening. The human Bax-α Standard solution should not be left at room temperature for more than 10 minutes. All standards, controls and samples should be run in duplicate. Refer to the Assay Layout Sheet to determine the number of wells to be used and put any remaining wells with the desiccant back into the pouch and seal the ziploc. Store unused wells at 4 °C. Pipet 100 μL of Assay Buffer into the S0 (0 pg/mL standard) wells. Pipet 100 μL of Standards #1 through #6 into the appropriate wells. Pipet 100 μL of the Samples into the appropriate wells. Tap the plate gently to mix the contents. Seal the plate and incubate at room temperature on a plate shaker for 1 hour at ~500 rpm. Empty the contents of the wells and wash by adding 400 μL of wash solution to every well. Repeat the wash 4 more times for a total of 5 washes. After the final wash, empty or aspirate the wells and firmly tap the plate on a lint free paper towel to remove any remaining wash buffer. Pipet 100 μL of yellow Antibody into each well, except the Blank. Seal the plate and incubate at room temperature on a plate shaker for 1 hour at ~500 rpm. Empty the contents of the wells and wash by adding 400 μL of wash solution to every well. Repeat the wash 4 more times for a total of 5 washes. After the final wash, empty or aspirate the wells and firmly tap the plate on a lint free paper towel to remove any remaining wash buffer. Add 100 μL of blue Conjugate to each well, except the Blank. Seal the plate and incubate at room temperature on a plate shaker for 30 minutes at ~500 rpm. Empty the contents of the wells and wash by adding 400 μL of wash solution to every well. Repeat the wash 4 more times for a total of 5 washes. After the final wash, empty or aspirate the wells and firmly tap the plate on a lint free paper towel to remove any remaining wash buffer. Pipet 100 μL of Substrate Solution into each well. Incubate for 30 minutes at room temperature on a plate shaker at ~500 rpm. Pipet 100 μL Stop Solution to each well. Blank the plate reader against the Blank wells, read the optical density at 450 nm. Calculate the average net Optical Density (OD) bound for each standard and sample by subtracting the average Blank OD from the average OD for each standard and sample. Using linear graph paper, plot the Average Net OD for each standard versus Bax concentration in each standard. Approximate a straight line through the points. The concentration of Bax in the unknowns can be determined by interpolation.

Bcl-2 = Bcl-2 level assay; conditions: MCF-7 cells
Protocol: Mix all reagents thoroughly without foaming before use. Wash the microwells twice with approximately 300 μL Wash Buffer per well with thorough aspiration of microwell contents between washes. Take caution not to scratch the surface of the microwells. After the last wash, empty the wells and tap microwell strips on absorbent pad or paper towel to remove excess Wash Buffer. Use the microwell strips immediately after washing or place upside down on a wet absorbent paper for not longer than 15 minutes. […] Add 100 μL of Sample Diluent in duplicate to all standard wells and to the blank wells. […] Add 100 μL of Sample Diluent, in duplicate, to the blank wells. Add 80 μL of Sample Diluent, in duplicate, to the sample wells. Add 20 μL of each Sample, in duplicate, to the designated wells. Add 50 μL of diluted biotin-conjugate to all wells, including the blank wells. Cover with a plate cover and incubate at room temperature, on a microplate shaker at 100 rpm if available, for 2 hours. Remove plate cover and empty the wells. Wash microwell strips 3 times as described in step 2. Add 100 μL of diluted Streptavidin-HRP to all wells, including the blank wells. Cover with a plate cover and incubate at room temperature, on a microplate shaker at 100 rpm if available, for 1 hour. Remove plate cover and empty the wells. Wash microwell strips 3 times as described in step 2. […] Pipette 100 μl of mixed TMB Substrate Solution to all wells, including the blanks. Incubate the microwell strips at room temperature (18° to 25°C) for about 15 minutes, if available on a rotator set at 100 rpm. Avoid direct exposure to intense light. The point, at which the substrate reaction is stopped, is often determined by the ELISA reader. Many ELISA readers record absorbance only up to 2.0 O.D. Therefore, the color development within individual microwells must be watched by the person running the assay and the substrate reaction stopped before positive wells are no longer properly detectable. Stop the enzyme reaction by quickly pipetting 100 μL of Stop Solution into each well, including the blank wells. It is important that the Stop Solution is spread quickly and uniformly throughout the microwells to completely inactivate the enzyme. Results must be read immediately after the Stop Solution is added or within one hour if the microwell strips are stored at 2 - 8°C in the dark. Read absorbance of each microwell on a spectrophotometer using 450 nm as the primary wavelength.

| SMILES | IC50 [1] [µM] | IC50 [2] [µM] | GI50 [3] [µM] | Potency reduction (fold) compared to 3d (GI50) [3] | IC50 [4] [µM] | IC50 [5] [µM] | viability at 4 days, 50 µM [6] [%] | IC50 (EGFR) | Fold less effective than erlotinib, EGFR inhibition (EGFR) | IC50 (HER-2) [µM] | viability at 4 days, 50 µM (in vitro) [%] | Caspase-9 Conc (Caspase-9) [ng/mL] | Cytochrome C Conc (Cytochrome C) [ng/mL] | Bax Conc (Bax) [pg/mL] | Bax Conc (Bax; listed as staurosporine) [pg/mL] | Bcl-2 Conc (Bcl-2) [ng/mL] |
| --- | --- | --- | --- | --- | --- | --- | --- | --- | --- | --- | --- | --- | --- | --- | --- | --- |
| Cc1ccc(S(=O)(=O)N/N=C/c2c(O)c3ccccc3n(C)c2=O)cc1 [Compound 3a, (E)-N'-((4-hydroxy-1-methyl-2-oxo-1,2-dihydroquinolin-3-yl)methylene)-4-methylbenzenesulfonohydrazide] | 0.092 ± 0.009 | 0.094 ± 0.009 | 0.092 | at least 2.3 | 0.089 ± 0.008 | 0.094 ± 0.009 | 90 | – | – | – | – | – | – | – | – | – |
| COc1ccc2[nH]c(=O)c(/C=N/NS(=O)(=O)c3ccc(C)cc3)c(O)c2c1 [Compound 3b, (E)-N'-((4-hydroxy-6-methoxy-2-oxo-1,2-dihydroquinolin-3-yl)methylene)-4-methyl benzenesulfonohydrazide] | 0.056 ± 0.005 | 0.058 ± 0.005 | 0.056 | 1.4 | 0.052 ± 0.005 | 0.056 ± 0.005 | 92 | – | – | – | – | – | – | – | – | – |
| Cc1ccc(S(=O)(=O)N/N=C/c2c(O)c3cc(C)ccc3[nH]c2=O)cc1 [Compound 3c, (E)-N'-((4-hydroxy-6-methyl-2-oxo-1,2-dihydroquinolin-3-yl)methylene)-4-methylbenzenesulfonohydrazide] | 0.05 ± 0.005 | 0.052 ± 0.004 | 0.051 | 1.3 | 0.048 ± 0.004 | 0.053 ± 0.005 | 86 | 0.095 µM and 0.099 µM | 1.2 | 0.049 ± 0.003 | – | – | – | – | – | – |
| CCn1c(=O)c(/C=N/NS(=O)(=O)c2ccc(C)cc2)c(O)c2ccccc21 [Compound 3e, (E)-N'-((1-Ethyl-4-hydroxy-2-oxo-1,2-dihydroquinolin-3-yl)methylene)-4-methyl benzenesulfonohydrazide] | 0.062 ± 0.006 | 0.064 ± 0.006 | 0.063 | – | 0.061 ± 0.006 | 0.064 ± 0.006 | 89 | – | – | – | – | – | – | – | – | – |
| Cc1ccc(S(=O)(=O)N/N=C/c2c(O)c3cc(Cl)ccc3[nH]c2=O)cc1 [Compound 3f, (E)-N'-((6-chloro-4-hydroxy-2-oxo-1,2-dihydroquinolin-3-yl)methylene)-4-methyl benzenesulfonohydrazide] | 0.046 ± 0.004 | 0.048 ± 0.004 | 0.046 | – | 0.043 ± 0.004 | 0.046 ± 0.004 | 90 | 0.099 µM and 0.095 µM | 1.2 | 0.044 ± 0.003 | – | – | – | – | – | – |
| Cc1ccc(S(=O)(=O)N/N=C/c2c(O)c3ccc(C)cc3[nH]c2=O)cc1 [Compound 3g, (E)-N'-((4-hydroxy-7-methyl-2-oxo-1,2-dihydroquinolin-3-yl)methylene)-4-methyl benzenesulfonohydrazide] | 0.094 ± 0.009 | 0.096 ± 0.009 | 0.094 | at least 2.3 | 0.09 ± 0.009 | 0.094 ± 0.009 | 87 | – | – | – | – | – | – | – | – | – |
| Cc1ccc(S(=O)(=O)N/N=C/c2c(O)c3cccc(C)c3[nH]c2=O)cc1 [Compound 3h, (E)-N'-((4-hydroxy-8-methyl-2-oxo-1,2-dihydroquinolin-3-yl)methylene)-4-methyl benzenesulfonohydrazide] | > 0.1 | > 0.1 | > 0.1 | at least 2.3 | > 0.1 | > 0.1 | 90 | – | – | – | – | – | – | – | – | – |
| Cc1ccc2[nH]c(=O)c(/C=N/Nc3ccc([N+](=O)[O-])cc3[N+](=O)[O-])c(O)c2c1 [Compound 5b, (E)-3-((2-(2,4-Dinitrophenyl)hydrazono)methyl)-4-hydroxy-6-methyl quinolin-2(1H)-one] | 0.052 ± 0.005 | 0.054 ± 0.005 | 0.053 | – | 0.05 ± 0.005 | 0.054 ± 0.005 | 90 | 0.106 ± 0.007 µM | – | 0.056 ± 0.004 | – | – | – | – | – | – |
| COc1ccc2[nH]c(=O)c(/C=N/Nc3ccc([N+](=O)[O-])cc3[N+](=O)[O-])c(O)c2c1 [Compound 5c, (E)-3-((2-(2,4-Dinitrophenyl)hydrazono)methyl)-4-hydroxy-6-methoxy quinolin-2(1H)-one] | 0.065 ± 0.006 | 0.068 ± 0.006 | 0.066 | – | 0.062 ± 0.006 | 0.069 ± 0.006 | – | – | – | – | 89 | – | – | – | – | – |
| Cc1cccc2c(O)c(/C=N/Nc3ccc([N+](=O)[O-])cc3[N+](=O)[O-])c(=O)[nH]c12 [Compound 5d, (E)-3-((2-(2,4-Dinitrophenyl)hydrazono)methyl)-4-hydroxy-8-methyl quinolin-2(1H)-one] | 0.071 ± 0.007 | 0.074 ± 0.007 | 0.072 | – | 0.067 ± 0.006 | 0.074 ± 0.007 | – | – | – | – | 92 | – | – | – | – | – |
| Cn1c(=O)c(/C=N/Nc2ccc([N+](=O)[O-])cc2[N+](=O)[O-])c(O)c2ccccc21 [Compound 5e, (E)-3-((2-(2,4-Dinitrophenyl)hydrazono)methyl)-4-hydroxy-1-methyl quinolin-2(1H)-one] | 0.076 ± 0.007 | 0.078 ± 0.007 | 0.076 | – | 0.074 ± 0.007 | 0.076 ± 0.007 | – | – | – | – | 87 | – | – | – | – | – |
| Cc1ccc2c(O)c(/C=N/Nc3ccc([N+](=O)[O-])cc3[N+](=O)[O-])c(=O)[nH]c2c1 [Compound 5f, (E)-3-((2-(2,4-Dinitrophenyl)hydrazono)methyl)-4-hydroxy-7-methyl quinolin-2(1H)-one] | 0.085 ± 0.008 | 0.086 ± 0.008 | 0.085 | – | 0.083 ± 0.008 | 0.086 ± 0.008 | – | – | – | – | 90 | – | – | – | – | – |
| O=c1[nH]c2ccc(Cl)cc2c(O)c1/C=N/Nc1ccc([N+](=O)[O-])cc1[N+](=O)[O-] [Compound 5g, (E)-6-Chloro-3-((2-(2,4-dinitrophenyl)hydrazono)methyl)-4-hydroxy quinolin-2(1H)-one] | 0.081 ± 0.008 | 0.082 ± 0.008 | 0.081 | – | 0.078 ± 0.007 | 0.082 ± 0.008 | – | – | – | – | 91 | – | – | – | – | – |
| CN[C@@H]1C[C@H]2O[C@@](C)([C@@H]1OC)n1c3ccccc3c3c4c(c5c6ccccc6n2c5c31)C(=O)NC4 [Staurosporine, reference compound] | – | – | – | – | – | – | – | – | – | – | – | 20 ± 1 | 0.50 | 290 ± 2 | 290 | 1.00 |

— publication PMC12481029, “Design, synthesis, antiproliferative assessments, and computational studies of new quinolin-2(1H)-ones as dual EGFR/HER-2 inhibitors” (Frontiers in Chemistry, 2025)
